Measured values from patent US20230173029A1, “TREATMENT OF CARDIAC REMODELLING” (UNIVERSITETET I OSLO, priority 2020, published 2023).

Experiments:
[1] = system: Dahl salt-sensitive (Dahl/SS) male rats; experiment: Autopsy: body weight, heart weight and heart weight to body weight ratio in hypertensive Dahl/SS rats; assay type: in vivo, rat; settings: for HW (heart weight) / HW/BW: HT Dahl/SS rats on high salt diet, at 6 weeks, mean ± SEM
Protocol: A total of 29 adult Dahl salt-sensitive (Dahl/SS) male rats with an initial weight of 150 to 200 g were included in the study. Rats were purchased from Charles River Laboratories (USA) and housed in a room with a 12/12-hour light cycle, a temperature of 21° C., and a humidity of 55%. Rats were maintained on a normal salt diet up to seven weeks of age. Twenty-two Dahl/SS were then randomly switched to a high salt diet for 6 weeks to induce hypertension, whilst 7 rats were kept normotensive (NT) on normal salt diet. Drinking water and food was provided ad libitum.
After 2 weeks of high salt diet, 15 hypertensive (HT) rats were started on treatment with proANP31-67. Rats treated with proANP31-67 received one of two dosages: 50 ng/kg/day (n=8) or 100 ng/kg/day (n=7). A total of 14 rats received only vehicle: control rats on a normal salt diet (n=7); and HT rats on a high salt diet (n=7). Rats were randomly assigned to the 3 groups (i.e. control normal salt; high salt untreated; high salt plus treatment).
Drug or vehicle was delivered via Alzet osmotic mini-pumps (Model 2004; mean pumping rate […], mean fill volume […]) implanted subcutaneously (as instructed by the manufacturer) for 28 days. Animals were treated with buprenorphine (0.05 mg/kg s.c.) as analgesic 30 minutes before and up to 1 day following implantation of pumps.
Experiments were performed as described above in Example 1, using a group of 8 Dahl/SS rats which, at 7 weeks of age, were switched to a high salt diet as described above. After 2 weeks of high salt diet, this group was started on proANP31-67 treatment. The rats were administered proANP31-67 at a renal sub-therapeutic dosage of 25 ng/kg/day.

[2] = system: rat neonatal cardiomyocytes; experiment: In vitro [3H]leucine incorporation in ANGII-stimulated neonatal cardiomyocytes; assay type: cell-based; settings: 24 h
Protocol: Primary cultures of rat cardiomyocyte cells were prepared as previously described (Larsen et al., Cardiovascular Research 80(1): 47-54, 2008). In brief, hearts from 1-3 day old Wistar rats (Taconic), were isolated by […] and pancreatin digestion. Cardiomyocytes were separated from noncardiomyocytes by differential attachment to uncoated culture flasks (90151; Techno Plastic Products). Cardiomyocytes were allowed to attach to 6- or 12-well culture plates (Corning International, Corning, N.Y.) coated with gelatine/fibronectin (G-1890/F1141; Sigma, St. Louis, Mo.) overnight in plating medium (2 or 1 ml) at a density of 2.5×10^5 cells/ml medium [DMEM (41965; GIBCO-BRL, Invitrogen) supplemented with penicillin/streptomycin/glutamine (G6784; Sigma), medium 199 (31150; GIBCO-BRL), HEPES (15630; GIBCO-BRL), horse serum (14-703E; Bio-Whittaker, Lonza), and fetal calf serum (14-701E; Bio-Whittaker)]. […]
5 μCi/ml [3H]leucine (American Radiolabeled Chemicals) were added at the same time as ANG II and the cells were washed six times in 95% EtOH before being harvested in 0.2 M NaOH 24 h after stimulation, as previously described (Halvorsen et al., Journal of Lipid Research 39(4): 901-912, 1998). […] [3H]leucine incorporation was quantified by measuring counts per minute in duplicates from each sample with the Wallac Winspectral 1414 liquid scintillation counter (PerkinElmer). […]

[3] = 50 or 100 ng/kg/day s.c. (pooled) for 28 days

Substance: proANP31-67: Human proANP31-67, linear peptide fragment of proANP consisting of SEQ ID NO: 1; also known as vessel dilator, VSDL (EVVPPQVLSEPNEEAGAALSPLPEVPPWTGEVSPAQR; listed as Homo sapiens)
- HW (heart weight) ([1]; 25 ng/kg/day s.c.): 1304 ± 41.4 mg
- HW/BW ([1]; 25 ng/kg/day s.c.): 3.68 ± 0.07
- HW (heart weight) [1, 3]: 1365 ± 30.1 mg
- HW/BW [1, 3]: 3.97 ± 0.1 mg/g
- increase in HW/BW relative to NT rats ([1]; HT Dahl/SS rats, 25 ng/kg/day s.c., FIG. 5B): no increase
- percentage increase in heart weight/body weight compared to NT ([1]; HT Dahl/SS rats, 50 or 100 ng/kg/day s.c. (pooled), FIG. 1B): less than 5%
- ANGII-induced hypertrophy as indexed by [3H]-leucine incorporation ([2]; 37.5 ng/ml proANP31-67, 1 μM ANG II): prevented
- ANGII-induced hypertrophy as indexed by [3H]-leucine incorporation ([2]; 150 ng/ml proANP31-67, 1 μM ANG II): prevented
